Entries after “also recorded” stand apart in the source; their conditions may differ.
Tests used:
NAPQI = assay: LC-MS/MS identification of serum NAPQI and novel benzoquinoimine; format: in vivo, mouse; conditions: CD-1 mice, 600 mg/kg, IP or per os
Description: […] (NAPQI) was extracted from the serum by adding 3 volumes of ethyl-acetate to 1 volume of serum and storing them on ice for 30 min, followed by centrifugation at 3000 g for 30 min. Afterward, the supernatant was transferred into mass spectrometry vials and dried under N2 gas. The serum was then washed with another 3 volumes of ethyl-acetate, and the supernatant was added back to the same mass spectrometry vial, followed by evaporation under a stream of N2 gas. The sample was re-suspended with 50 μl of 1:1 MeOH:H2O for LC-MS/MS experimentation. The mass spectrophotometer was operated in multiple reaction monitoring (MRM) mode using positive ion electrospray. NAPQI was detected by monitoring the m/z transition 150.3→108.1. Pure NAPQI analytical standard (10 ng/mL) obtained from Cayman Chemical (Ann Arbor, MI) was used to characterize the full fragmentation pattern of NAPQI and determine the likely fragments.

Sprague-Dawley rats = assay: CFA inflammatory pain / von Frey with electronic detection (eVF); format: in vivo, rat; conditions: for antinociceptive activity, SRP-001 versus ApAP: 32 and 100 mg/kg, young and aged rats
Description: In this model of mechanonociception, one hind paw at a time is stimulated with an electronic von Frey (eVF) filament (noxious source) until the animal retracts the paw from the mechanical stimulus. von Frey tests were conducted in a dedicated room at the LSUHSC New Orleans Neuroscience Center of Excellence vivarium. Rats were acclimated to their environment for 2 days for 30 min/day prior to testing. To obtain eVF pressure recordings, each animal was placed in an individual plastic observation compartment on a perforated metallic grid platform, which provided access to the plantar surface of the hind paws. After acclimation to the environment for 30 min, mechanical hypersensitivity was assessed by stimulating the mid-plantar area of each hind paw with a rigid tip von Frey filament attached to the eVF meter (Ugo Basile 38450) until animals withdrew the paw from the filament. The withdrawal threshold was defined as the average force/pressure (g) required for the rat to withdraw the stimulated paw. A brisk withdrawal of the paw (often followed by a sustained retraction and/or licking) was considered a positive response, but paw withdrawals due to locomotion or weight shifting were not counted. The von Frey studies were conducted with an eVF device that electronically registers the grams of force necessary to elicit paw withdrawal in order to eliminate bias that confounded previous older versions of this test. Baseline withdrawal thresholds of both the right and left paws were recorded, and animals were assigned to different treatment groups so that each group had approximately equal withdrawal threshold averages in both paws. […] Doses at concentrations of 32 mg/kg and 100 mg/kg were tested in a cumulative dose-response manner and given at an interval of 60 min, and paw withdrawal threshold readings were measured using eVF as described above.

[1] = tested on: midbrain periaqueductal gray (PAG) cells; assay: Single-cell RNA sequencing of midbrain PAG in CFA-induced chronic inflammatory pain model; format: in vivo, rat; conditions: CFA rats; for expression of FAAH, CORO2A and RPL7L1 (scRNAseq): 100 mg/kg, 1 h
Description: Subsequently, we endeavored to explore the single-cell transcriptome of the eVF rat mid-brain PAG region to further define the mechanisms of action (MOA) of chronic inflammatory pain and, ultimately, SRP-001- and ApAP-mediated pain modulation. Left hind paws of Sprague Dawley rats were injected with 150 μl of 50% complete Freund's adjuvant (CFA), freshly diluted with sterile saline on the day of administration, to induce conspicuous long-standing inflammatory pain in the rats' hind paws, along with mechanical hyperalgesia tested using eVF. […].
Single-cell (scRNA) RNA sequencing. For cell nuclei isolation from the midbrain PAG, they were flash-frozen, dissected (by a cryotome), minced into small pieces, homogenized, filtered through 70 strainer and centrifuged. ReadiDrop 7-AAD cell viability dye (Bio-Rad) added, and flow sorted the live ([…]) nuclei in a BioRad Cell Sorter S3e using purity mode. Nuclei were counted using Nexcelom automated Cellometer with acridine orange/propidium iodide (AOPI) stain, and the Nuclei Stock Concentration used so that 10,000 nuclei could be targeted for each sample. […] Post library construction QC was performed using Agilent Bioanalyzer 2100 on High Sensitivity DNA chips, and after verification of sample traces, each library normalized based on the average fragment size, and the concentration determined using Qubit 4.0 fluorometer (Thermo Fisher Scientific). […]
Data processing. […] Read alignment, filtering, barcode counting, peak calling, and counting of both ATAC and GEX molecules were performed using cellranger-arc count. […] Only confidently mapped reads with valid barcodes, unique molecular identifiers (UMIs), and non-PCR duplicated were retained. The overall sequencing quality was evaluated by looking at the summary metrics of the web_summary.html file generated for each sample. […]

SMILES | serum NAPQI formation (NAPQI) | antinociceptive activity, SRP-001 versus ApAP (Sprague-Dawley rats) | equimolar (μmol/kg) ED50 / dose-response curve relative to ApAP (Sprague-Dawley rats; von Frey, non-linear regression) | expression of FAAH, CORO2A and RPL7L1 (scRNAseq) [1] | regulation of FAAH signaling genes ([1]; IPA analysis)
CCN(CC)C(=O)c1ccccc1S(=O)(=O)NCC(=O)Nc1ccc(O)cc1 [SRP-001, N,N-diethyl-2-[[2-(4-hydroxyanilino)-2-oxo-ethyl]sulfamoyl]benzamide] | lack of formation of the toxic quinonimine metabolite NAPQI; also recorded: lack of production of NAPQI | comparable antinociceptive activity; also recorded: more efficacious than ApAP; also recorded: comparable analgesic activity | shifted curves to the left; also recorded: comparable or improved ED50; also recorded: clear shift to the left | Downregulation | more significantly regulated by SRP-001 than ApAP
CC(=O)Nc1ccc(O)cc1 [ApAP, acetaminophen] | a NAPQI peak is seen; also recorded: significantly enhanced | comparable antinociceptive activity; also recorded: comparable analgesic activity | – | Downregulation | –

— patent publication US20250339391A1, “METHODS FOR EFFECTIVE MANAGEMENT OF PAIN” (South Rampart Pharma, Inc., priority 2024, published 2025)
